From patent US20100267784A1, “NOVEL 4,5-DIHYDROISOXAZOLES WITH ESTROGENIC ACTIVITY” (priority 2007, published 2010)
Where “and” joins values, the source holds several entries; their conditions need not be identical. Equal entries are not always repeated.

Assays:
ERα = target: T1, ERα (Homo sapiens, UniProt P03372); assay: ERα reporter (luciferase) transactivation assay in transfected HEK293 cells; assay type: cell-based; parameters: expressed in transfected cells; host or cells: HEK293; conditions: sample concentration 10 μM, 24 hours, mean of at least three independent transfections
T1 sequence (P03372 1-595): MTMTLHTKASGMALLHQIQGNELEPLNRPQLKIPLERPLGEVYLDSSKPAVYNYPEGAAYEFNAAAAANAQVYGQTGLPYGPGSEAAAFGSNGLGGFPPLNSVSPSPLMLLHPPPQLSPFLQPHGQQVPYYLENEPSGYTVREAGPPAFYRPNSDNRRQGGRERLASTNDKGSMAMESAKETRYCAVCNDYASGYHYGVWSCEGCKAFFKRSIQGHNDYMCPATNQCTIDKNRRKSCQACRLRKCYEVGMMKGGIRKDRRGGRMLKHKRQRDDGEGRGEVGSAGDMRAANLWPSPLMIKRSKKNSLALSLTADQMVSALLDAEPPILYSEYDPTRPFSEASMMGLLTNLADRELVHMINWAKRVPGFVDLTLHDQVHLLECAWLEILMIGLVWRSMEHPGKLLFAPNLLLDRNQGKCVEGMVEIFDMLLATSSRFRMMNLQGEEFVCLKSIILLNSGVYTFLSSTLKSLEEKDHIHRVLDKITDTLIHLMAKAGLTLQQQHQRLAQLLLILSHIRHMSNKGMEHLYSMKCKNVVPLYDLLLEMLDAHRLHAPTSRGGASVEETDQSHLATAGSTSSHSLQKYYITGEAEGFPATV
Method: (§1) Determination of the Estrogen Activity of the Compounds: Cell Culture, Transfection and Reporter Assays
(§2) All other reagents were of reagent grade from Sigma or Fluka. One day before transfection, HEK293 cells were seeded in 48-well plates (70×10^3 cells per well) in phenol-free Dulbecco's modified Eagle medium supplemented with 5% delipidated fetal bovine serum (Sigma) and antibiotics. After a medium change, the cells were transfected for 4 hours with 5 ng ERα or ERβ expression vector, 75 ng reporter plasmid pERE2TATA-LUC and 20 ng control plasmid pCMVβ by the calcium phosphate method. After transfection, the cells received fresh medium containing either vehicle (0.1% v/v) or test compound (10 μM). After 24 hours, the cells were washed, lysed and luciferase and β-galactosidase activities were determined from 20 μl of lysates with the Victor^2TM reader (PerkinElmer Wallac, Turku, Finland). […] The data are means ±SEM of at least three independent transfections.

ERβ = ERβ (Homo sapiens, UniProt Q92731); assay: ERβ reporter (luciferase) transactivation assay in transfected HEK293 cells; assay type: cell-based; parameters: expressed in transfected cells; host or cells: HEK293; conditions: for ERβ receptor activation relative to 10 nM E2 corresponding 100: sample concentration 10 μM, 24 hours, mean of at least three independent transfections; for activation at 10 µM: HEK293, 24 h, read-out: ERβ receptor activation relative to 10 nM E2 corresponding 100, sample concentration 10 μM, mean of at least three independent transfections
Method: as §1, §2

Sequence of ERβ (Q92731 whole entry): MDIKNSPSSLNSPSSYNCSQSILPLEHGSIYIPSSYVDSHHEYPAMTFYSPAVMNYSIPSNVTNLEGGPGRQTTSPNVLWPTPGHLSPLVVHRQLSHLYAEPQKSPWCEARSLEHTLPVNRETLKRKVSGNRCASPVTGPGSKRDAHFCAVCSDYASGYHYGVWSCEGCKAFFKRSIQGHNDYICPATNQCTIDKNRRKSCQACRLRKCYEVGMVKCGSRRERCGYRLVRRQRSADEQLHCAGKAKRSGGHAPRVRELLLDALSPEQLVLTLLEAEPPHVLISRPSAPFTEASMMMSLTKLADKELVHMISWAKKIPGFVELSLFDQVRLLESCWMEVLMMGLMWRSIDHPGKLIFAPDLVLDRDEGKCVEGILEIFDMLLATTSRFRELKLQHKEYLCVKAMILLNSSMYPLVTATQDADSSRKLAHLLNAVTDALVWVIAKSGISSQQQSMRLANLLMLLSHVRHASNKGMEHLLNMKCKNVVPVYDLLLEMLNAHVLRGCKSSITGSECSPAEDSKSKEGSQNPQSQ

SMILES	ERα receptor activation relative to 10 nM E2 corresponding 100 (ERα)	ERβ receptor activation relative to 10 nM E2 corresponding 100 (ERβ) [%]	activation at 10 µM (ERβ) [%]
Oc1ccccc1CCC1=NOC(Cc2ccc(F)cc2)C1 (single isomer, unassigned) [97b, 5-(4-Fluoro-benzyl)-3-[2-(2-hydroxy-phenyl)-ethyl]-4,5-dihydro-isoxazole]	11.1%	−2.4	–
Oc1ccc(C2=NOC(Cc3ccccc3)C2)cc1 (single isomer, unassigned) [80b, 5-Benzyl-3-(4-hydroxy-phenyl)-4,5-dihydro-isoxazole]	58.6%	17.7	–
CC1(c2ccccc2)CC(CCc2ccccc2)=NO1 (single isomer, unassigned) [71b, 5-Methyl-3-phenethyl-5-phenyl-4,5-dihydroisoxazole]	10.9%	−7.3	–
Oc1ccc(CC2=NOC(c3cccc(O)c3)C2)cc1 (single isomer, unassigned) [83a, 3-(4-Hydroxy-benzyl)-5-(3-hydroxy-phenyl)-4,5-dihydro-isoxazole]	30.8%	–	33.2
Oc1ccc(CC2CC(CCc3ccccc3O)=NO2)cc1 (single isomer, unassigned) [95a, 5-(4-Hydroxy-benzyl)-3-[2-(2-hydroxy-phenyl)-ethyl]-4,5-dihydro-isoxazole]	20.4%	2.4	–
Oc1ccc(CCC2=NOC(Cc3ccc(O)cc3)C2)cc1 (single isomer, unassigned) [96a, 5-(4-Hydroxy-benzyl)-3-[2-(4-hydroxy-phenyl)-ethyl]-4,5-dihydro-isoxazole]	76.2%	12.0	–
Fc1cccc(CC2=NOC(CCc3ccccc3)C2)c1 (stereo not shown) [69ab, 3-(3-Fluorobenzyl)-5-phenethyl-4,5-dihydroisoxazole]	19.5% and 19.7%	–	10.6
Oc1ccc(CC2=NOC(c3cccc(O)c3)C2)cc1 (single isomer, unassigned) [83b, 3-(4-Hydroxy-benzyl)-5-(3-hydroxy-phenyl)-4,5-dihydro-isoxazole]	3.6%	41.3	–
COc1ccc(C2=NOC(Cc3ccccc3)C2)cc1 (single isomer, unassigned) [12a, 5-Benzyl-3-(4-methoxyphenyl)-4,5-dihydroisoxazole]	55.2%	17.2	–
c1ccc(CCC2=NOC(Cc3ccc4ccccc4c3)C2)cc1 (single isomer, unassigned) [68b, 5-naphthalen-2-yl-methyl-3-phenethyl-4,5-dihydroisoxazole]	13.0%	3.8	–
Oc1ccccc1CCC1=NOC(Cc2ccccc2)C1 (single isomer, unassigned) [91b, 5-Benzyl-3-[2-(2-hydroxy-phenyl)-ethyl]-4,5-dihydro-isoxazole]	39.7%	30.5	–
Oc1ccc(CCCC2=NOC(c3cccc(O)c3)C2)cc1 (single isomer, unassigned) [89a, 3-[3-(4-Hydroxy-phenyl)-propyl]-5-(3-hydroxy-phenyl)-4,5-dihydro-isoxazole]	32.9%	–	12
c1ccc(CCC2=NOC(Cc3ccc4ccccc4c3)C2)cc1 (single isomer, unassigned) [68a, 5-naphthalen-2-yl-methyl-3-phenethyl-4,5-dihydroisoxazole]	22.3%	8.2	–
Oc1ccc(CC2CC(CCc3ccccc3)=NO2)cc1 (single isomer, unassigned) [94a, 5-(4-Hydroxy-benzyl)-3-phenethyl-4,5-dihydro-isoxazole]	34.2%	9.1	–
Oc1ccc(CCCC2=NOC(Cc3ccccc3)C2)cc1 (single isomer, unassigned) [99a, 5-Benzyl-3-[3-(4-hydroxy-phenyl)-propyl]-4,5-dihydro-isoxazole]	153.7%	78.2	–
c1ccc(CCC2=NOC(Cc3cccc4ccccc34)C2)cc1 (single isomer, unassigned) [67b, 5-naphthalen-1-yl-methyl-3-phenethyl-4,5-dihydroisoxazole]	17.2%	6.5	–
Oc1cccc(C2CC(Cc3ccccc3)=NO2)c1 (stereo not shown) [82ab, 3-Benzyl-5-(3-hydroxy-phenyl)-4,5-dihydro-isoxazole]	21.6%	–	6.6
Oc1cccc(CCC2=NOC(Cc3ccccc3)C2)c1 (single isomer, unassigned) [92a, 5-Benzyl-3-[2-(3-hydroxy-phenyl)-ethyl]-4,5-dihydro-isoxazole]	19.2%	6.7	–
COc1ccc(CCCC2=NOC(c3ccccc3)C2)cc1 (single isomer, unassigned) [72a, 3-[3-(4-Methoxy-phenyl)-propyl]-5-phenyl-4,5-dihydroisoxazole]	9.2%	−5.8	–
Oc1ccccc1CCC1=NOC(Cc2ccc(F)cc2)C1 (single isomer, unassigned) [97a, 5-(4-Fluoro-benzyl)-3-[2-(2-hydroxy-phenyl)-ethyl]-4,5-dihydro-isoxazole]	82.0%	3.4	–

More lines, now with the values ahead:

ERα receptor activation relative to 10 nM E2 corresponding 100 (ERα)	ERβ receptor activation relative to 10 nM E2 corresponding 100 (ERβ) [%]	activation at 10 µM (ERβ) [%]	SMILES
69.5%	–	15.5	CC1(c2ccccc2)CC(CCCc2ccccc2)=NO1 (stereo not shown) [115ab, 5-Methyl-5-phenyl-3-(3-phenyl-propyl)-4,5-dihydro-isoxazole]
31.3%	13.6	–	c1ccc(CCCC2=NOC(Cc3ccccc3)C2)cc1 (single isomer, unassigned) [114a, 5-Benzyl-3-(3-phenyl-propyl)-4,5-dihydro-isoxazole]
−1.0%	–	6.6	c1ccc(CC2CC(c3ccccc3)=NO2)cc1 (single isomer, unassigned) [107a, 5-Benzyl-3-phenyl-4,5-dihydroisoxazole]
67.1%	4.7	–	Oc1ccc(CC2CC(CCCc3ccccc3)=NO2)cc1 (single isomer, unassigned) [100a, 5-(4-Hydroxy-benzyl)-3-(3-phenyl-propyl)-4,5-dihydro-isoxazole]
68.4%	–	1.1	c1ccc(CCC2=NOC(Cc3ccccc3)C2)cc1 (single isomer, unassigned) [109a, 5-Benzyl-3-phenethyl-4,5-dihydroisoxazole]
3.4%	0.2	–	c1ccc(CCC2=NOC(CCc3ccccc3)C2)cc1 (single isomer, unassigned) [116a, 3,5-Di-phenethyl-4,5-dihydroisoxazole]
62.8%	15.4	–	Oc1ccc(CCC2=NOC(CCc3ccccc3)C2)cc1 (single isomer, unassigned) [106a, 3-[2-(4-Hydroxy-phenyl)-ethyl]-5-phenethyl-4,5-dihydro-isoxazole]
43.9%	−0.4	–	c1ccc(CCC2=NOC(CCc3ccccc3)C2)cc1 (single isomer, unassigned) [116b, 3,5-Di-phenethyl-4,5-dihydroisoxazole]
8.3%	–	2.6	Oc1cccc(CCC2=NOC(CCc3ccccc3)C2)c1 (single isomer, unassigned) [105a, 3-[2-(3-Hydroxy-phenyl)-ethyl]-5-phenethyl-4,5-dihydro-isoxazole]
